Laboratory results taken from US5334603A, “Composition and use of 3-phenyl-5-thiocyano-methylthio-1,3,4-thiadiazole-2(3h)thione” (The Dow Chemical Company, priority 1993, dated 1994).
Values after ≈ are worked out from the molar mass of the structure shown.

How the values were obtained:
Format in all cases: cell-based
[1] = tested on: Aureobasidium pullulan (Ap); assay: Minimum inhibitory concentration (MIC), malt yeast agar; conditions: pH 5.5; ATCC 16622; 30° C.; 48 hours for yeast, 72 hours for fungi
Description: (§1) The minimum inhibitory concentration (MIC) for the compound is determined for 9 bacteria, using nutrient agar; and 7 yeast and fungi, using malt yeast agar. A one percent solution of the test compound is prepared in a mixture of acetone and water. Nutrient agar is prepared at pH 6.8, representing a neutral medium, and at pH 8.2, representing an alkaline medium. The nutrient agars are prepared by adding 23 g of nutrient agar to one-liter of deionized water. In addition, the alkaline medium is prepared by adjusting a 0.04M solution of N-[tris-(hydroxymethyl)methyl]-glycine buffered deionized water with concentrated sodium hydroxide to a pH of […]. Malt yeast agar is prepared by adding 3 g yeast extract and 45 g malt agar per liter of deionized water. The specific agar is dispensed in 30 ml aliquots into 25×200 mm test tubes, capped and autoclaved for 15 minutes at 115° C. The test tubes containing the agar are cooled in a water bath until the temperature of the agar is 48 ° C. Then, an appropriate amount of the one percent solution of the test compound is added (except in the controls where no compound is added) to the respective test tubes so that the final concentrations are 500, 250, 100, 50, 25, 10, 5, 2.5, 1.0 and zero parts per million of the test compound in the agar, thus having a known concentration of test compound dispersed therein. The contents of the test tubes are then transferred to respective petri plates. After drying for 24 hours, the petri plates containing nutrient agar are inoculated with bacteria and those containing malt yeast agar are inoculated with yeast and fungi.
(§2) The inoculation with the yeast and fungi is accomplished as follows. Cultures of yeast and fungi are incubated for seven days on malt yeast agar at 30° C. These cultures are used to prepare suspensions by the following procedure. A suspension of each organism is prepared by adding 10 ml of sterile saline and 10 microliters of octylphenoxy polyethoxy ethanol to the agar slant of yeast or fungi. The sterile saline/octylphenoxy polyethoxy ethanol solution is then agitated with a sterile swab to suspend the microorganism grown on the slant. Each resulting suspension is diluted into sterile saline (1 part suspension: 9 parts sterile saline). Aliquots of these dilutions are placed in individual wells of Steer's Replicator and petri plates inoculated as previously described. The petri plates are incubated at 30° C. and read after 48 hours for yeast and 72 hours for fungi.

[2] = tested on: Fusarium oxysporum (Fo); assay: as above; conditions: pH 5.5; ATCC 48112; 30° C.; 48 hours for yeast, 72 hours for fungi
Description: as §1, §2

[3] = tested on: Saccharomyces cerevisiae (Sc); assay: as above; conditions: ATCC4105, pH 5.5, ATCC 4105, 30° C., 48 hours for yeast, 72 hours for fungi
Description: as §1, §2

[4] = tested on: Trichoderma viride (Tv); assay: as above; conditions: pH 5.5; ATCC 8678; 30° C.; 48 hours for yeast, 72 hours for fungi
Description: as §1, §2

[5] = tested on: Penicillium chrysogenum (Pc); assay: as above; conditions: pH 5.5; ATCC 9480; 30° C.; 48 hours for yeast, 72 hours for fungi
Description: as §1, §2

[6] = tested on: Candida Albicans (Ca); assay: as above; conditions: pH 5.5; ATCC 10231; 30° C.; 48 hours for yeast, 72 hours for fungi
Description: as §1, §2

[7] = tested on: Aspergillus niger (An); assay: as above; conditions: pH 5.5; ATCC 16404; 30° C.; 48 hours for yeast, 72 hours for fungi
Description: as §1, §2

[8] = tested on: Klebsiella pneumoniae (Kp); assay: Minimum inhibitory concentration (MIC), nutrient agar; conditions: 48 hours
Description: as §1
(§3) The inoculation with bacteria is accomplished by using the following procedure. Twenty-four hour-cultures of each of the bacteria are prepared by incubating the respective bacteria in tubes containing nutrient broth for 24 hours at 30° C. in a shaker. Dilutions of each of the 24 hour-cultures are made so that nine separate suspensions (one for each of the nine test bacteria) are made, each containing 10^8 colony forming units (CFU) per ml of suspension of a particular bacteria. Aliquots of 0.3 ml of each of the bacterial suspensions are used to fill the individual wells of Steer's Replicator. For each microbial suspension, 0.3 ml was used to fill three wells (i.e., three wells of 0.3 ml each) so that for the nine different bacteria, 27 wells are filled. The Steer's Replicator is then used to inoculate both the neutral and alkaline pH nutrient agar petri plates.
(§4) The inoculated petri plates are incubated at 30° C. for 48 hours and then read to determine if the test compound which is incorporated into the agar prevented growth of the respective bacteria.

[9] = tested on: Pseudomonas aeruginosa (PRD-10); assay: as above; conditions: 48 hours
Description: as §1, §3, §4

[10] = tested on: Escherichia coli (Ec); assay: as above; conditions: 48 hours
Description: as §1, §3, §4

[11] = tested on: Enterobacter aerogenes (Ea); assay: as above; conditions: Klebsiella aerogenes, ATCC13048, ATCC 13048, 30° C., 48 hours
Description: as §1, §3, §4

[12] = tested on: Bacillus subtilis (Bs); assay: as above; conditions: 48 hours
Description: as §1, §3, §4

[13] = tested on: Proteus vulgaris (Pv); assay: as above; conditions: 48 hours
Description: as §1, §3, §4

[14] = tested on: Pseudomonas aeruginosa (Pa); assay: as above; conditions: 48 hours
Description: as §1, §3, §4

[15] = tested on: Salmonella choleraesuis (Sc); assay: as above; conditions: Salmonella enterica, ATCC 10708 / CHOLERAESUIS, 48 hours
Description: as §1, §3, §4

[16] = tested on: Staphylococcus aureus (Sa); assay: as above; conditions: 48 hours
Description: as §1, §3, §4

N#CSCSc1nn(-c2ccccc2)c(=S)s1 [INVENTION, 3-phenyl-5-thiocyanomethylthio-1,3,4-thiadiazole-2(3H)thione]
MIC [1]: 2.5 µg/mL (≈ 8.4 µM)
MIC [2]: 10 µg/mL (≈ 33.6 µM)
MIC [3]: 5 µg/mL (≈ 16.8 µM)
MIC [4]: 25 µg/mL (≈ 84 µM)
MIC [5]: 2.5 µg/mL (≈ 8.4 µM)
MIC [6]: 25 µg/mL (≈ 84 µM)
MIC [7]: 5 µg/mL (≈ 16.8 µM)
MIC ([8]; ATCC8308, pH 6.8, ATCC 8308, 30° C.): 100 µg/mL (≈ 336 µM)
MIC ([8]; ATCC8308, pH 8.2, ATCC 8308, 30° C.): 250 µg/mL (≈ 840 µM)
MIC ([9]; ATCC15442, pH 6.8, ATCC 15442, 30° C.): 50 µg/mL (≈ 168 µM)
MIC ([9]; ATCC15442, pH 8.2, ATCC 15442, 30° C.): 100 µg/mL (≈ 336 µM)
MIC ([10]; ATCC11229, pH 6.8, ATCC 11229, 30° C.): 100 µg/mL (≈ 336 µM)
MIC ([10]; ATCC11229, pH 8.2, ATCC 11229, 30° C.): 500 µg/mL (≈ 1680 µM)
MIC ([11]; pH 6.8): 100 µg/mL (≈ 336 µM)
MIC ([11]; pH 8.2): > 500 µg/mL
MIC ([12]; ATCC8473, pH 6.8, ATCC 8473, 30° C.): 100 µg/mL (≈ 336 µM)
MIC ([12]; ATCC8473, pH 8.2, ATCC 8473, 30° C.): < 10 µg/mL
MIC ([13]; ATCC881, pH 6.8, ATCC 881, 30° C.): 100 µg/mL (≈ 336 µM)
MIC ([13]; ATCC881, pH 8.2, ATCC 881, 30° C.): 250 µg/mL (≈ 840 µM)
MIC ([14]; ATCC10145, pH 6.8, ATCC 10145, 30° C.): 50 µg/mL (≈ 168 µM)
MIC ([14]; ATCC10145, pH 8.2, ATCC 10145, 30° C.): 50 µg/mL (≈ 168 µM)
MIC ([15]; pH 6.8, 30° C.): 100 µg/mL (≈ 336 µM)
MIC ([15]; pH 8.2, 30° C.): 500 µg/mL (≈ 1680 µM)
MIC ([16]; ATCC6538, pH 6.8, ATCC 6538, 30° C.): 100 µg/mL (≈ 336 µM)
MIC ([16]; ATCC6538, pH 8.2, ATCC 6538, 30° C.): 250 µg/mL (≈ 840 µM)
